Data set [1] has as its system Plasmodium falciparum. Description: Antiplasmodial activity against chloroquine and pyrimethamine resistant Plasmodium falciparum K1 assessed as reduction in [3H]-hypoxanthine incorporation incubated for 48 hrs by liquid scintillation counting method. The data set is classed as functional, organism-based.
The test system of data set [2] is Plasmodium falciparum. As to the kind of experiment: Antiplasmodial activity against chloroquine sensitive Plasmodium falciparum NF54 assessed as reduction in [3H]-hypoxanthine incorporation incubated for 48 hrs by liquid scintillation counting method. The class given is functional, organism-based.
The next data set relates to L6. Description: Cytotoxicity in rat L6 cells assessed as reduction in cell viability incubated for 72 hrs by alamar blue dye based assay. To be noted: L6, 72 h. (In general: Alamar Blue is a resazurin reagent that responds to reducing activity.)
A short description of data set [3]: Selectivity index, ratio of IC50 for rat L6 cells to IC50 for chloroquine and pyrimethamine resistant Plasmodium falciparum K1. The class given is toxicity. To be noted: L6 cells versus Plasmodium falciparum K1, read-out: Ratio IC50.
Data set [4] deals with Plasmodium berghei. As to the kind of experiment: Antiplasmodial activity against GFP-transfected Plasmodium berghei ANKA infected in NMRI mouse assessed as reduction in parasitaemia at 50 mg/kg/day, ip for 4 days measured on 24 hrs after last dose by FACS analysis. The data set is classed as functional. Further details: scale not given: the % may be the effect or the level left. Background: In flow cytometry, cells or beads pass a laser one at a time.

The subject of data set [5] is Plasmodium berghei. Description: Antiplasmodial activity against GFP-transfected Plasmodium berghei ANKA infected in NMRI mouse assessed as mouse survival at 50 mg/kg/day, ip for 4 days measured up to 30 days. The class given is functional.

The record followed here is ChEMBL document CHEMBL4190368, “Synthesis and antimalarial evaluation of artesunate-polyamine and trioxolane-polyamine conjugates” (Eur J Med Chem, 2017).

Bounds are passed on as bounds.

In the case of `O=C(O)C1CCC2(CC1)OOC1(O2)C2CC3CC(C2)CC1C3` (stereo not given), the IC50 in the data set on Plasmodium falciparum [1] amounted to 2.8 nM; in the data set with Plasmodium falciparum [2], 6.5 nM; in the data set on L6 it was 139000 nM. The selectivity ratio in data set [3] came to 49600.
The corresponding values for `C[C@H]1[C@H](OC(=O)CCC(=O)NCCCN(CCCCCCN(CCCNC(=O)CCC(=O)O[C@@H]2O[C@@H]3O[C@@]4(C)CC[C@H]5[C@H](C)CC[C@@H]([C@H]2C)[C@@]35OO4)C(=O)CCC(=O)O[C@@H]2O[C@@H]3O[C@@]4(C)CC[C@H]5[C@H](C)CC[C@@H]([C@H]2C)[C@@]35OO4)C(=O)CCC(=O)O[C@@H]2O[C@@H]3O[C@@]4(C)CC[C@H]5[C@H](C)CC[C@@H]([C@H]2C)[C@@]35OO4)O[C@@H]2O[C@@]3(C)CC[C@H]4[C@H](C)CC[C@@H]1[C@@]24OO3` are 0.6 nM, 0.6 nM, 880 nM and 1470.
For `C[C@H]1[C@H](OC(=O)CCC(=O)NCCCN(CCCCCCCN(CCCNC(=O)CCC(=O)O[C@@H]2O[C@@H]3O[C@@]4(C)CC[C@H]5[C@H](C)CC[C@@H]([C@H]2C)[C@@]35OO4)C(=O)CCC(=O)O[C@@H]2O[C@@H]3O[C@@]4(C)CC[C@H]5[C@H](C)CC[C@@H]([C@H]2C)[C@@]35OO4)C(=O)CCC(=O)O[C@@H]2O[C@@H]3O[C@@]4(C)CC[C@H]5[C@H](C)CC[C@@H]([C@H]2C)[C@@]35OO4)O[C@@H]2O[C@@]3(C)CC[C@H]4[C@H](C)CC[C@@H]1[C@@]24OO3`, in that order: 0.6 nM, 0.8 nM, 1240 nM and 2070.
The corresponding values for `O=C(NCCCN(CCCCCCCN(CCCNC(=O)C1CCC2(CC1)OOC1(O2)C2CC3CC(C2)CC1C3)C(=O)C1CCC2(CC1)OOC1(O2)C2CC3CC(C2)CC1C3)C(=O)C1CCC2(CC1)OOC1(O2)C2CC3CC(C2)CC1C3)C1CCC2(CC1)OOC1(O2)C2CC3CC(C2)CC1C3` (stereo not given) are 76 nM, 287 nM, > 71000 nM and > 934.
In the case of `O=C(NCCCN(CCCCCCN(CCCNC(=O)C1CCC2(CC1)OOC1(O2)C2CC3CC(C2)CC1C3)C(=O)C1CCC2(CC1)OOC1(O2)C2CC3CC(C2)CC1C3)C(=O)C1CCC2(CC1)OOC1(O2)C2CC3CC(C2)CC1C3)C1CCC2(CC1)OOC1(O2)C2CC3CC(C2)CC1C3` (stereo not given), the IC50 was 11 nM in the data set with Plasmodium falciparum [1], 22 nM in the data set with Plasmodium falciparum [2] and 63200 nM in the data set on L6. Further, the selectivity ratio in data set [3] was 5740.
As to `CC(C)(C)OC(=O)N(CCCCCCN(CCCNC(=O)C1CCC2(CC1)OOC1(O2)C2CC3CC(C2)CC1C3)C(=O)OC(C)(C)C)CCCNC(=O)C1CCC2(CC1)OOC1(O2)C2CC3CC(C2)CC1C3` (stereo not given), the IC50 came out at 5 nM with Plasmodium falciparum [1], 21 nM in the data set on Plasmodium falciparum [2] and 59200 nM with L6. Further, in data set [3], the selectivity ratio is 10800. Moreover, in the data set with Plasmodium berghei [4], the Activity was 79.4%. Also, in the data set with Plasmodium berghei [5], the Survival stood at 6.7 days.
As for `C[C@H]1[C@H](OC(=O)CCC(=O)NCCCN(CCCCCCCCCCN(CCCNC(=O)CCC(=O)O[C@@H]2O[C@@H]3O[C@@]4(C)CC[C@H]5[C@H](C)CC[C@@H]([C@H]2C)[C@@]35OO4)C(=O)OC(C)(C)C)C(=O)OC(C)(C)C)O[C@@H]2O[C@@]3(C)CC[C@H]4[C@H](C)CC[C@@H]1[C@@]24OO3`, the IC50 in the data set with Plasmodium falciparum [1] is 0.8 nM; with Plasmodium falciparum [2], 0.8 nM; with L6, 500 nM. Also, the selectivity ratio in data set [3] was 625.
For `O=C(NCCCN(CCCCCCCCN(CCCNC(=O)C1CCC2(CC1)OOC1(O2)C2CC3CC(C2)CC1C3)C(=O)C1CCC2(CC1)OOC1(O2)C2CC3CC(C2)CC1C3)C(=O)C1CCC2(CC1)OOC1(O2)C2CC3CC(C2)CC1C3)C1CCC2(CC1)OOC1(O2)C2CC3CC(C2)CC1C3` (stereo not given), the IC50 with Plasmodium falciparum [1] was found to be 11 nM; in the data set with Plasmodium falciparum [2], 26 nM; with L6, 59200 nM. Besides, the selectivity ratio in data set [3] is 5380.
As to `O=C(NCCCN(CCCCN(CCCNC(=O)C1CCC2(CC1)OOC1(O2)C2CC3CC(C2)CC1C3)C(=O)C1CCC2(CC1)OOC1(O2)C2CC3CC(C2)CC1C3)C(=O)C1CCC2(CC1)OOC1(O2)C2CC3CC(C2)CC1C3)C1CCC2(CC1)OOC1(O2)C2CC3CC(C2)CC1C3` (stereo not given), the IC50 with Plasmodium falciparum [1] is 6.2 nM; in the data set with Plasmodium falciparum [2], 98 nM; with L6 it was 50400 nM. Further, in data set [3], the selectivity ratio worked out at 8130.
The corresponding values for `CC(C)(C)OC(=O)N(CCCCCCCCN(CCCNC(=O)C1CCC2(CC1)OOC1(O2)C2CC3CC(C2)CC1C3)C(=O)OC(C)(C)C)CCCNC(=O)C1CCC2(CC1)OOC1(O2)C2CC3CC(C2)CC1C3` (stereo not given) are 59 nM, 79 nM, 57600 nM and 976.
The corresponding values for `C[C@H]1[C@H](OC(=O)CCC(=O)NCCCN(CCCCCCCN(CCCNC(=O)CCC(=O)O[C@@H]2O[C@@H]3O[C@@]4(C)CC[C@H]5[C@H](C)CC[C@@H]([C@H]2C)[C@@]35OO4)C(=O)OC(C)(C)C)C(=O)OC(C)(C)C)O[C@@H]2O[C@@]3(C)CC[C@H]4[C@H](C)CC[C@@H]1[C@@]24OO3` are 0.8 nM, 0.6 nM, 970 nM and 1210.
For `CC(C)(C)OC(=O)N(CCCCCCCN(CCCNC(=O)C1CCC2(CC1)OOC1(O2)C2CC3CC(C2)CC1C3)C(=O)OC(C)(C)C)CCCNC(=O)C1CCC2(CC1)OOC1(O2)C2CC3CC(C2)CC1C3` (stereo not given), the IC50 with Plasmodium falciparum [1] was 32.2 nM; with Plasmodium falciparum [2], 45.4 nM; in the data set with L6, > 100000 nM. Also, the selectivity ratio in data set [3] was > 3020. For the same molecule, the Activity in the data set on Plasmodium berghei [4] is given as 94.7%. Also, the Survival in the data set on Plasmodium berghei [5] was 7.3 days.
On to `C[C@H]1[C@H](OC(=O)CCC(=O)NCCCN(CCCCCCCCN(CCCNC(=O)CCC(=O)O[C@@H]2O[C@@H]3O[C@@]4(C)CC[C@H]5[C@H](C)CC[C@@H]([C@H]2C)[C@@]35OO4)C(=O)OC(C)(C)C)C(=O)OC(C)(C)C)O[C@@H]2O[C@@]3(C)CC[C@H]4[C@H](C)CC[C@@H]1[C@@]24OO3`, for which the IC50 is 0.8 nM with Plasmodium falciparum [1], 0.7 nM with Plasmodium falciparum [2] and 560 nM in the data set on L6. For the same molecule, the selectivity ratio in data set [3] worked out at 700.
The corresponding values for `O=C(NCCCN(CCCCCCCCCCN(CCCNC(=O)C1CCC2(CC1)OOC1(O2)C2CC3CC(C2)CC1C3)C(=O)C1CCC2(CC1)OOC1(O2)C2CC3CC(C2)CC1C3)C(=O)C1CCC2(CC1)OOC1(O2)C2CC3CC(C2)CC1C3)C1CCC2(CC1)OOC1(O2)C2CC3CC(C2)CC1C3` (stereo not given) are 30 nM, 88 nM, > 69000 nM and > 2300.
As for `C[C@H]1[C@H](OC(=O)CCC(=O)NCCCN(CCCCCCCCN(CCCNC(=O)CCC(=O)O[C@@H]2O[C@@H]3O[C@@]4(C)CC[C@H]5[C@H](C)CC[C@@H]([C@H]2C)[C@@]35OO4)C(=O)CCC(=O)O[C@@H]2O[C@@H]3O[C@@]4(C)CC[C@H]5[C@H](C)CC[C@@H]([C@H]2C)[C@@]35OO4)C(=O)CCC(=O)O[C@@H]2O[C@@H]3O[C@@]4(C)CC[C@H]5[C@H](C)CC[C@@H]([C@H]2C)[C@@]35OO4)O[C@@H]2O[C@@]3(C)CC[C@H]4[C@H](C)CC[C@@H]1[C@@]24OO3`, the IC50 worked out at 0.6 nM with Plasmodium falciparum [1], 0.8 nM in the data set on Plasmodium falciparum [2] and 900 nM with L6. Besides, the selectivity ratio in data set [3] is 1500.
The corresponding values for `C[C@H]1[C@H](OC(=O)CCC(=O)NCCCN(CCCCCCCCCCN(CCCNC(=O)CCC(=O)O[C@@H]2O[C@@H]3O[C@@]4(C)CC[C@H]5[C@H](C)CC[C@@H]([C@H]2C)[C@@]35OO4)C(=O)CCC(=O)O[C@@H]2O[C@@H]3O[C@@]4(C)CC[C@H]5[C@H](C)CC[C@@H]([C@H]2C)[C@@]35OO4)C(=O)CCC(=O)O[C@@H]2O[C@@H]3O[C@@]4(C)CC[C@H]5[C@H](C)CC[C@@H]([C@H]2C)[C@@]35OO4)O[C@@H]2O[C@@]3(C)CC[C@H]4[C@H](C)CC[C@@H]1[C@@]24OO3` are 1.1 nM, 0.6 nM, 490 nM and 445.
For `CC(C)(C)OC(=O)N(CCCCCCCCCCN(CCCNC(=O)C1CCC2(CC1)OOC1(O2)C2CC3CC(C2)CC1C3)C(=O)OC(C)(C)C)CCCNC(=O)C1CCC2(CC1)OOC1(O2)C2CC3CC(C2)CC1C3` (stereo not given), in that order: 60 nM, 97 nM, 70900 nM and 1180.
`C[C@H]1[C@H](OC(=O)CCC(=O)NCCCN(CCCCCCN(CCCNC(=O)CCC(=O)O[C@@H]2O[C@@H]3O[C@@]4(C)CC[C@H]5[C@H](C)CC[C@@H]([C@H]2C)[C@@]35OO4)C(=O)OC(C)(C)C)C(=O)OC(C)(C)C)O[C@@H]2O[C@@]3(C)CC[C@H]4[C@H](C)CC[C@@H]1[C@@]24OO3`: the IC50 was 0.9 nM in the data set with Plasmodium falciparum [1], 0.8 nM with Plasmodium falciparum [2] and 660 nM in the data set on L6. The selectivity ratio in data set [3] stood at 733.
The corresponding values for `C[C@H]1[C@H](OC(=O)CCC(=O)O)O[C@@H]2O[C@@]3(C)CC[C@H]4[C@H](C)CC[C@@H]1[C@@]24OO3` [ARTESUNATE] are 0.5 nM, 2.6 nM, 6630 nM and 13300.

The IC50 is the midpoint of a concentration-inhibition curve.
